Test results taken from article PMC12396409, “Screening and hit evaluation of a microbial metabolite library against the pathogenic Plasmodium falciparum and Toxoplasma gondii parasites” (International Journal for Parasitology: Drugs and Drug …, 2025).
Where two headings read alike, the source gives them in different places.

Assays:
[1] = tested on: P. falciparum 3D7 parasites; test: P. falciparum growth inhibition assay, 1-cycle (72 h treatment), SYBR DNA staining (library screen at 2 μg/mL and dose-response); assay type: cell-based, Plasmodium falciparum; details: for activity at 2 µg/mL: Plasmodium falciparum; for activity at 2 µg/mL / Pf_72h_%Growth_Rep1 / Pf_72h_%Growth_Rep2: 72 h
[2] = tested on: P. falciparum 3D7 parasites; test: P. falciparum growth inhibition assay, 2-cycle (120 h treatment), delayed-death screen and dose-response; assay type: cell-based, Plasmodium falciparum; details: 120 h; for activity at 2 µg/mL: Plasmodium falciparum
[3] = tested on: T. gondii RH strain (RH-Tub-eYFP) tachyzoites; test: microbe, parasite or virus in culture; assay type: cell-based, Toxoplasma gondii; details: 72 h, 72 h; for percent parasite growth at 2 µg/mL: Toxoplasma gondii
[4] = library screen at 2 μg/mL, % growth, replicate 1, read-out: Tg_72h_%Growth_Rep1
[5] = library screen at 2 μg/mL, % growth, replicate 2, read-out: Tg_72h_%Growth_Rep2
[6] = library screen at 2 μg/mL, % growth, replicate 1
[7] = library screen at 2 μg/mL, % growth, replicate 2
[8] = P. falciparum, screen at 2 μg/mL, replicate 1
[9] = P. falciparum, screen at 2 μg/mL, replicate 2
[10] = T. gondii, screen at 2 μg/mL, replicate 1
[11] = T. gondii, screen at 2 μg/mL, replicate 2
[12] = P. falciparum, parasite screen 2 μg/mL, % growth, replicate 1
[13] = P. falciparum, parasite screen 2 μg/mL, % growth, replicate 2

SMILES: CC(=O)OCC1=C[C@@H]2OC(=O)C3=CO[C@@H](O[C@@H]4O[C@H](CO)[C@@H](O)[C@H](O)[C@H]4O)[C@H]1[C@@H]32 [Asperuloside]
- activity at 2 µg/mL ([1]; 3D7, library screen at 2 μg/mL, % growth, replicate 1, read-out: Pf_72h_%Growth_Rep1): 86.2%
- activity at 2 µg/mL ([1]; 3D7, library screen at 2 μg/mL, % growth, replicate 2, read-out: Pf_72h_%Growth_Rep2): 89.3%
- activity at 2 µg/mL ([2]; 3D7, library screen at 2 μg/mL, % growth, replicate 1, read-out: Pf_120h_%Growth_Rep1): 94.8%
- activity at 2 µg/mL ([2]; 3D7, library screen at 2 μg/mL, % growth, replicate 2, read-out: Pf_120h_%Growth_Rep2): 94.6%
- percent parasite growth at 2 µg/mL [3, 4]: 123%
- percent parasite growth at 2 µg/mL [3, 5]: 97.1%

SMILES: CC(C)C[C@H]1C(=O)O[C@H](C(C)C)C(=O)N(C)[C@@H](CC(C)C)C(=O)O[C@H](C(C)C)C(=O)N(C)[C@@H](CC(C)C)C(=O)O[C@H](C(C)C)C(=O)N(C)[C@@H](CC(C)C)C(=O)O[C@H](C(C)C)C(=O)N1C [Bassianolide]
- Pf_72h_%Growth_Rep1 [1, 6]: 6.97%
- Pf_72h_%Growth_Rep2 [1, 7]: 5.23%
- Pf_120h_%Growth_Rep1 [2, 6]: 10.85%
- Pf_120h_%Growth_Rep2 [2, 7]: -3.01%
- Tg_72h_%Growth_Rep1 [3, 6]: 78.43%
- Tg_72h_%Growth_Rep2 [3, 7]: 93.64%

SMILES: CO[C@@H]1[C@H](O)C[C@@H](O[C@@H]2C[C@H](Oc3cc4cc5c(c(O)c4c(O)c3C)C(=O)[C@@H](O[C@H]3C[C@@H](O[C@H]4C[C@@H](O[C@H]6C[C@](C)(O)[C@@H](OC(C)=O)[C@H](C)O6)[C@H](O)[C@@H](C)O4)[C@H](O)[C@@H](C)O3)[C@H]([C@H](OC)C(=O)[C@@H](O)[C@@H](C)O)C5)O[C@H](C)[C@@H]2OC(C)=O)O[C@@H]1C [Chromomycin A3]
- activity at 2 µg/mL ([1]; 3D7, 72 h, P. falciparum, screen at 2 μg/mL, replicate 1, read-out: Pf_72h_%Growth_Rep1): -1.98%
- activity at 2 µg/mL ([1]; 3D7, 72 h, P. falciparum, screen at 2 μg/mL, replicate 2, read-out: Pf_72h_%Growth_Rep2): 0.17%
- activity at 2 µg/mL ([2]; 3D7, 120 h, P. falciparum, screen at 2 μg/mL, replicate 1, read-out: Pf_120h_%Growth_Rep1): 2.76%
- activity at 2 µg/mL ([2]; 3D7, 120 h, P. falciparum, screen at 2 μg/mL, replicate 2, read-out: Pf_120h_%Growth_Rep2): -4.9%
- percent parasite growth at 2 µg/mL ([3]; T. gondii, screen at 2 μg/mL, replicate 1, read-out: Tg_72h_%Growth_Rep1): 1.51%
- percent parasite growth at 2 µg/mL ([3]; T. gondii, screen at 2 μg/mL, replicate 2, read-out: Tg_72h_%Growth_Rep2): 1.99%

SMILES: Cc1cc(=O)c2c(o1)O[C@@]1(C)CC[C@@H]3[C@@]4(C)CC[C@H](O)C(C)(C)[C@@H]4CC[C@@]3(C)[C@@H]1C2 [Chevalone E]
- Pf_72h_%Growth_Rep1 [1, 8]: 103.28%
- Pf_72h_%Growth_Rep2 [1, 9]: 92.51%
- Pf_120h_%Growth_Rep1 [2, 8]: 162.52%
- Pf_120h_%Growth_Rep2 [2, 9]: 100.96%
- Tg_72h_%Growth_Rep1 [3, 10]: 83.71%
- Tg_72h_%Growth_Rep2 [3, 11]: 88.30%

SMILES: O=[N+]([O-])c1ncc[nH]1 [Azomycin]
- activity at 2 µg/mL ([1]; 3D7, 72 h, library screen at 2 μg/mL, % growth, replicate 1, read-out: Pf_72h_%Growth_Rep1): 83.2%
- activity at 2 µg/mL ([1]; 3D7, 72 h, library screen at 2 μg/mL, % growth, replicate 2, read-out: Pf_72h_%Growth_Rep2): 88%
- activity at 2 µg/mL ([2]; 3D7, 120 h, library screen at 2 μg/mL, % growth, replicate 1, read-out: Pf_120h_%Growth_Rep1): 147%
- activity at 2 µg/mL ([2]; 3D7, 120 h, library screen at 2 μg/mL, % growth, replicate 2, read-out: Pf_120h_%Growth_Rep2): 91.9%
- percent parasite growth at 2 µg/mL [3, 4]: 77.1%
- percent parasite growth at 2 µg/mL [3, 5]: 71.1%

SMILES: CC[C@H]1CCC[C@H](O[C@H]2CC[C@H](N(C)C)[C@@H](C)O2)[C@@H](C)C(=O)C2=C[C@@H]3[C@@H](C=C(C)[C@@H]4C[C@@H](O[C@@H]5O[C@@H](C)[C@H](OC)[C@@H](OC)[C@H]5OC)C[C@@H]34)[C@@H]2CC(=O)O1 [Spinosyn D]
- IC50 ([1]; 3D7, 72 h treatment, mean ± S.D., n ≥ 3, read-out: IC50 (μM), P. falciparum): > 1 µM
- Pf_72h_%Growth_Rep1 [1, 12]: 88.37%
- Pf_72h_%Growth_Rep2 [1, 13]: 73.59%
- Screen (P. falciparum) ([1]; library screen at 2 μg/mL, 3D7, 72 h, DD from the 120 h timepoint): I
- Pf_120h_%Growth_Rep1 [2, 12]: 102.44%
- Pf_120h_%Growth_Rep2 [2, 13]: 14.31%
- Tg_72h_%Growth_Rep1 ([3]; T. gondii, parasite screen 2 μg/mL, % growth, replicate 1): 127.19%
- Tg_72h_%Growth_Rep2 ([3]; T. gondii, parasite screen 2 μg/mL, % growth, replicate 2): 79.47%

SMILES: CCC(=O)N[C@H](CO)[C@H](O)c1ccc([N+](=O)[O-])cc1 [Corynecin II]
- Pf_72h_%Growth_Rep1 [1, 8]: 84.27%
- Pf_72h_%Growth_Rep2 [1, 9]: 79.27%
- Pf_120h_%Growth_Rep1 [2, 8]: 83.93%
- Pf_120h_%Growth_Rep2 [2, 9]: 86.26%
- Tg_72h_%Growth_Rep1 [3, 10]: 140.85%
- Tg_72h_%Growth_Rep2 [3, 11]: 90.01%

SMILES: CC(=O)O[C@@H]1C[C@]2(C)[C@@]3(CO)[C@H](O)C(=O)C(C)=C[C@H]3O[C@H]1[C@@]21CO1 [Acetyldeoxynivalenol, 3-]
- Pf_72h_%Growth_Rep1 [1, 6]: 11.16%
- Pf_72h_%Growth_Rep2 [1, 7]: 9.81%
- Pf_120h_%Growth_Rep1 [2, 6]: 14.50%
- Pf_120h_%Growth_Rep2 [2, 7]: 5.88%
- Tg_72h_%Growth_Rep1 [3, 6]: 4.23%
- Tg_72h_%Growth_Rep2 [3, 7]: 6.65%
